Values joined by “and” are separate entries in the source; they are usually repeats but may differ in a detail not shown here. Identical values can stand only once.
Test system: 786-0 complex spheroids with HUVEC/MSC, growth % test/control
Assay: Anticancer human tumor 786-0 cell line growth inhibition [AhR];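 also: compound exposure lasted seven days before the read-out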
Conditions: for viability, T/C: stronger effect = lower value
Procedure, shortened: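 Agents were dosed in half-log steps down from roughly clinical Cmax, or from 10 microM where Cmax was unknown, alone and with AhR antagonists. Read-out: percent test/control growth of tumor spheroids containing HUVEC and MSC stromal cells.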

[1] = curve of first compound, second compound 0.1 µM
[2] = curve of first compound, second compound 0.316 µM
[3] = curve of first compound, second compound 1 µM
[4] = curve of first compound, second compound 3.16 µM
[5] = curve of first compound, second compound 10 µM
[6] = second compound 0.1 µM, first compound 0.0316 µM
[7] = second compound 0.1 µM, first compound 0.1 µM
[8] = second compound 0.316 µM, first compound 0.0316 µM
[9] = second compound 0.316 µM, first compound 0.1 µM
[10] = second compound 1 µM, first compound 0.0316 µM
[11] = second compound 1 µM, first compound 0.1 µM
[12] = second compound 3.16 µM, first compound 0.0316 µM
[13] = second compound 3.16 µM, first compound 0.1 µM
[14] = second compound 10 µM, first compound 0.0316 µM
[15] = second compound 10 µM, first compound 0.1 µM

COc1cccc2c1C(=O)c1c(O)c3c(c(O)c1C2=O)CC(O)(C(=O)CO)CC3OC1CC(N)C(O)C(C)O1 (centres undefined) + CC(CO)NC(=O)c1cc(-c2ccc(Cl)cc2)nn(-c2cnn(C)c2)c1=O
IC50 [1]: 43 nM
IC50 [2]: < 31.6 nM
IC50 [3]: 45.5 nM
IC50 [4]: < 31.6 nM
IC50 [5]: < 31.6 nM
viability, T/C [6]: 54.4%
viability, T/C [7]: 37.9%
viability, T/C (second compound 0.1 µM, first compound 0.316 µM): 12.5%
viability, T/C (second compound 0.1 µM, first compound 1 µM): 2.51%
viability, T/C (second compound 0.1 µM, first compound 3.16 µM): 0.63%
viability, T/C (second compound 0.1 µM, first compound 10 µM): 0.56%
viability, T/C [8]: 46.7%
viability, T/C [9]: 40%
viability, T/C (second compound 0.316 µM, first compound 0.316 µM): 14.3%
viability, T/C (second compound 0.316 µM, first compound 1 µM): 3.11%
viability, T/C (second compound 0.316 µM, first compound 3.16 µM): 0.25%
viability, T/C (second compound 0.316 µM, first compound 10 µM): 0.6%
viability, T/C [10]: 54.3%
viability, T/C [11]: 40.6%
viability, T/C (second compound 1 µM, first compound 0.316 µM): 11.6%
viability, T/C (second compound 1 µM, first compound 1 µM): 3.23%
viability, T/C (second compound 1 µM, first compound 3.16 µM): 0.45%
viability, T/C (second compound 1 µM, first compound 10 µM): 0.49%
viability, T/C [12]: 47.4%
viability, T/C [13]: 42.3%
viability, T/C (second compound 3.16 µM, first compound 0.316 µM): 10.9%
viability, T/C (second compound 3.16 µM, first compound 1 µM): 3.69%
viability, T/C (second compound 3.16 µM, first compound 3.16 µM): 0.34%
viability, T/C (second compound 3.16 µM, first compound 10 µM): 0.41%
viability, T/C [14]: 44.9%
viability, T/C [15]: 37.5%
viability, T/C (second compound 10 µM, first compound 0.316 µM): 11.2%
viability, T/C (second compound 10 µM, first compound 1 µM): 1.48%
viability, T/C (second compound 10 µM, first compound 3.16 µM): 0.72%
viability, T/C (second compound 10 µM, first compound 10 µM): 0.86%

COc1ccc([C@@H](O)c2cc(-c3ncnc4cc(N5CCOCC5)ccc34)c(F)cc2Cl)nn1
viability, T/C (compound 0.0316 µM): 96.7% and 103% and 114%
viability, T/C (compound 0.1 µM): 93.2% and 100% and 104%
viability, T/C (compound 0.316 µM): 98.7% and 110% and 115%
viability, T/C (compound 1 µM): 84.7% and 105% and 108%
viability, T/C (compound 3.16 µM): 91.4% and 103% and 111%
viability, T/C (compound 10 µM): 70.2% and 91.1% and 85.7%
IC50 (curve of compound): > 10000 nM

CC1COCCN1c1cc(-c2ccnn2C)c2ccnc(-c3ccn[nH]3)c2n1 (centres undefined)
viability, T/C (compound 0.00316 µM): 104% and 102% and 103%
viability, T/C (compound 0.01 µM): 103% and 104% and 94.9%
viability, T/C (compound 0.0316 µM): 101% and 104% and 88.6%
viability, T/C (compound 0.1 µM): 56.4% and 92% and 57.7%
viability, T/C (compound 0.316 µM): 16.5% and 26.5% and 11.5%
viability, T/C (compound 1 µM): 4.64% and 9.13% and 3.92%
IC50 (curve of compound): 123 nM and 209 nM and 118 nM

Cn1ncnc1C1c2n[nH]c(=O)c3cc(F)cc(c23)NC1c1ccc(F)cc1 (centres undefined) + CC(CO)NC(=O)c1cc(-c2ccc(Cl)cc2)nn(-c2cnn(C)c2)c1=O
IC50 [1]: > 100 nM
IC50 [2]: > 100 nM
IC50 [3]: > 100 nM
IC50 [4]: > 100 nM
IC50 [5]: > 100 nM
viability, T/C (second compound 0.1 µM, first compound 0.000316 µM): 105%
viability, T/C (second compound 0.1 µM, first compound 0.001 µM): 97.4%
viability, T/C (second compound 0.1 µM, first compound 0.00316 µM): 95%
viability, T/C (second compound 0.1 µM, first compound 0.01 µM): 99.6%
viability, T/C [6]: 113%
viability, T/C [7]: 98.8%
viability, T/C (second compound 0.316 µM, first compound 0.000316 µM): 101%
viability, T/C (second compound 0.316 µM, first compound 0.001 µM): 105%
viability, T/C (second compound 0.316 µM, first compound 0.00316 µM): 97.8%
viability, T/C (second compound 0.316 µM, first compound 0.01 µM): 98.2%
viability, T/C [8]: 109%
viability, T/C [9]: 98.7%
viability, T/C (second compound 1 µM, first compound 0.000316 µM): 99.3%
viability, T/C (second compound 1 µM, first compound 0.001 µM): 107%
viability, T/C (second compound 1 µM, first compound 0.00316 µM): 105%
viability, T/C (second compound 1 µM, first compound 0.01 µM): 110%
viability, T/C [10]: 107%
viability, T/C [11]: 99.3%
viability, T/C (second compound 3.16 µM, first compound 0.000316 µM): 107%
viability, T/C (second compound 3.16 µM, first compound 0.001 µM): 102%
viability, T/C (second compound 3.16 µM, first compound 0.00316 µM): 99.1%
viability, T/C (second compound 3.16 µM, first compound 0.01 µM): 111%
viability, T/C [12]: 100%
viability, T/C [13]: 102%
viability, T/C (second compound 10 µM, first compound 0.000316 µM): 114%
viability, T/C (second compound 10 µM, first compound 0.001 µM): 118%
viability, T/C (second compound 10 µM, first compound 0.00316 µM): 110%
viability, T/C (second compound 10 µM, first compound 0.01 µM): 111%
viability, T/C [14]: 110%
viability, T/C [15]: 110%

From PubChem BioAssay AID1919003 (Molecular Pharmacology Branch, DTP, NCI, 2023)
